{
  "source": "patent US20220160901A1",
  "about": "“Stimuli-Responsive Compositions, Imaging Systems, and Methods for Using the Same for Biomedical Applications” (The Regents of the University of California, priority 2019, published 2022)",
  "test": "T1 values measured using NMR",
  "set-up": "unit not given here",
  "data": [
    {"substance": "Fe(Me-bik)3](BF4)2.25H2O", "values": [
      {"measurement": "T1 at 23° C.", "setting": "1 mg/mL", "result": 2.9433},
      {"measurement": "T1 at 40° C.", "setting": "1 mg/mL", "result": 4.2093},
      {"measurement": "T1 at 60° C.", "setting": "1 mg/mL", "result": 5.3784},
      {"measurement": "T1 at 23° C.", "setting": "2 mg/mL", "result": 2.8944},
      {"measurement": "T1 at 40° C.", "setting": "2 mg/mL", "result": 3.9614},
      {"measurement": "T1 at 60° C.", "setting": "2 mg/mL", "result": 4.9954},
      {"measurement": "T1 at 23° C.", "setting": "4 mg/mL", "result": 2.7392},
      {"measurement": "T1 at 40° C.", "setting": "4 mg/mL", "result": 3.4784},
      {"measurement": "T1 at 60° C.", "setting": "4 mg/mL", "result": 4.2761},
      {"measurement": "T1 at 23° C.", "setting": "8 mg/mL", "result": 2.7413},
      {"measurement": "T1 at 40° C.", "setting": "8 mg/mL", "result": 3.434},
      {"measurement": "T1 at 60° C.", "setting": "8 mg/mL", "result": 4.172}
    ]}
  ]
}
